Assay results as given in patent US20050143382A1 (4SC AG, priority 2003, published 2005).

Key:
Type in all cases: biochemical
Details in all cases: recombinant human kinase, 1 μM ATP
SRC kinase = molecular target: T1, SRC kinase (Homo sapiens, UniProt P12931); assay: 33PanQinase protein kinase activity assay, SRC
T1 construct: made in house; host or cells: Sf9 insect cells (baculovirus)
Procedure: (§1) The effect of the farazanopyrazine derivatives was tested on recombinant, human protein kinases. All protein kinases were expressed in Sf9 insect cells as human recombinant GST-fusion proteins or as His-tagged proteins by means of the baculovirus expression system. Protein kinases were purified by affinity chromatography using either GSH-agarose or Ni-NTH-agarose. The purity and identity of each was checked by SDS-PAGE/silver staining and by western blot analysis with specific antibodies.
(§2) A proprietary protein kinase assay (^33 PanQinase® Activity Assay) was used for measuring the kinase activity. All kinase assays were performed in 96-well FlashPlates™ in a 50 μl reaction volume. The assay for all enzymes contained 60 mM HEPES-NaOH, pH 7.5, 3 mM MgCl2, 3 mM MnCl2, 3 μM Na-orthovanadate, 1.2 mM DTT, 50 μg/ml PEG20000 and 1 μM [γ-^33P]-ATP (approx. 5×10^5 cpm per well).
(§3) The reaction cocktails were incubated at 30° C. for 80 minutes. The reaction was stopped with 50 μl of 2% (v/v) H3PO4, plates were aspirated and washed two times with 200 μl of 0.9% (w/v) NaCl. Incorporation of 33Pi was determined with a microplate scintillation counter. All assays were performed with a BeckmanCoulter/Sagian robotic system.

Aurora B kinase = molecular target: T2, Aurora B kinase (Homo sapiens, UniProt Q96GD4); assay: 33PanQinase protein kinase activity assay, Aurora B
T2 construct: made in house; host or cells: Sf9 insect cells (baculovirus)
T2 sequence (Q96GD4 whole entry): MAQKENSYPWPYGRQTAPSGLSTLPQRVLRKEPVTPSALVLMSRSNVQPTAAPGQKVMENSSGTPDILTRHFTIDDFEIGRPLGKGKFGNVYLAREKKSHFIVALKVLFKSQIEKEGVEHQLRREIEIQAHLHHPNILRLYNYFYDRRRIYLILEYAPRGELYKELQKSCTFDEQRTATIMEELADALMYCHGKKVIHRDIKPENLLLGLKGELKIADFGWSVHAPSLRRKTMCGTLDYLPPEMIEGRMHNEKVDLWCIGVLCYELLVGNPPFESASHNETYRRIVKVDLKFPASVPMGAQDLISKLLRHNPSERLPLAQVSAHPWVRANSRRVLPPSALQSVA
Procedure: as §1, §2, §3

VEGF-R2 = molecular target: T3, VEGF-R2 (Homo sapiens, UniProt P35968); assay: 33PanQinase protein kinase activity assay, VEGF-R2
T3 construct: made in house; host or cells: Sf9 insect cells (baculovirus)
T3 sequence (P35968 20-1356): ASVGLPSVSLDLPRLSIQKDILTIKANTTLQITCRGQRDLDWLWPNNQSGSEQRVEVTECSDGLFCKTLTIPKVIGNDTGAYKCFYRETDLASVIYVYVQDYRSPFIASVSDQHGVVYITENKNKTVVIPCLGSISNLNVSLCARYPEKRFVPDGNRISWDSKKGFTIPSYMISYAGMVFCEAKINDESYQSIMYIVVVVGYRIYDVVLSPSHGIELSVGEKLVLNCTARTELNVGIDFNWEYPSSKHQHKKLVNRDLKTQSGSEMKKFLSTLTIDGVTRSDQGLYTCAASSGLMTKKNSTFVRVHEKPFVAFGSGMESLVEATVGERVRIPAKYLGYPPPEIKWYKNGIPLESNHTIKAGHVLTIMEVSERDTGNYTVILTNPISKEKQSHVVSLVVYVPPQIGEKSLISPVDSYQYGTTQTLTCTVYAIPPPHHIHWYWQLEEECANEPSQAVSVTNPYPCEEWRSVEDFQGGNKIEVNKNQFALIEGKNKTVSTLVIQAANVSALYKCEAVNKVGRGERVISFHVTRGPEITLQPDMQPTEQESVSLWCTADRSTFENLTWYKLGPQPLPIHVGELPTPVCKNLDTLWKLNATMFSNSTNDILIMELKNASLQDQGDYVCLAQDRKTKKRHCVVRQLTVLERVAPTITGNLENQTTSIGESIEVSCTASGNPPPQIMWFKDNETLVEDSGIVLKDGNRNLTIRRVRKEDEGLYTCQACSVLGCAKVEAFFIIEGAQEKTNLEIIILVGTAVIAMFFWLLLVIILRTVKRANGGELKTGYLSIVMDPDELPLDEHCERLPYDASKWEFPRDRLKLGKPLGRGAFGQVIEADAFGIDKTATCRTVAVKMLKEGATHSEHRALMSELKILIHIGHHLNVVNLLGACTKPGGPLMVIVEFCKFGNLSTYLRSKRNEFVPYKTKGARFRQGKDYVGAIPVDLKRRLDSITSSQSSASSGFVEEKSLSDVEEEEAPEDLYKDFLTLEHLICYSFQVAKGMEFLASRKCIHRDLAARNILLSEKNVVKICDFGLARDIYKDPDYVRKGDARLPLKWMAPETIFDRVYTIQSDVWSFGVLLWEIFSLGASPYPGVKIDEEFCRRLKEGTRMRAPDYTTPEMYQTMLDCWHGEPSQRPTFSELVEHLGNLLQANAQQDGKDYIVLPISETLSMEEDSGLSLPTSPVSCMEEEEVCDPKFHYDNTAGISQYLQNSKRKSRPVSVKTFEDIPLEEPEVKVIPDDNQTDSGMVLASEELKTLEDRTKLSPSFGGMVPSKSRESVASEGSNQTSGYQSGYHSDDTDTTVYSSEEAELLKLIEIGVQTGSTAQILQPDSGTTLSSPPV
Procedure: as §1, §2, §3

IGF-1 R = molecular target: T4, IGF-1 R (Homo sapiens, UniProt P08069); assay: 33PanQinase protein kinase activity assay, IGF-1 R
T4 construct: made in house; host or cells: Sf9 insect cells (baculovirus)
T4 sequence (P08069 31-1367): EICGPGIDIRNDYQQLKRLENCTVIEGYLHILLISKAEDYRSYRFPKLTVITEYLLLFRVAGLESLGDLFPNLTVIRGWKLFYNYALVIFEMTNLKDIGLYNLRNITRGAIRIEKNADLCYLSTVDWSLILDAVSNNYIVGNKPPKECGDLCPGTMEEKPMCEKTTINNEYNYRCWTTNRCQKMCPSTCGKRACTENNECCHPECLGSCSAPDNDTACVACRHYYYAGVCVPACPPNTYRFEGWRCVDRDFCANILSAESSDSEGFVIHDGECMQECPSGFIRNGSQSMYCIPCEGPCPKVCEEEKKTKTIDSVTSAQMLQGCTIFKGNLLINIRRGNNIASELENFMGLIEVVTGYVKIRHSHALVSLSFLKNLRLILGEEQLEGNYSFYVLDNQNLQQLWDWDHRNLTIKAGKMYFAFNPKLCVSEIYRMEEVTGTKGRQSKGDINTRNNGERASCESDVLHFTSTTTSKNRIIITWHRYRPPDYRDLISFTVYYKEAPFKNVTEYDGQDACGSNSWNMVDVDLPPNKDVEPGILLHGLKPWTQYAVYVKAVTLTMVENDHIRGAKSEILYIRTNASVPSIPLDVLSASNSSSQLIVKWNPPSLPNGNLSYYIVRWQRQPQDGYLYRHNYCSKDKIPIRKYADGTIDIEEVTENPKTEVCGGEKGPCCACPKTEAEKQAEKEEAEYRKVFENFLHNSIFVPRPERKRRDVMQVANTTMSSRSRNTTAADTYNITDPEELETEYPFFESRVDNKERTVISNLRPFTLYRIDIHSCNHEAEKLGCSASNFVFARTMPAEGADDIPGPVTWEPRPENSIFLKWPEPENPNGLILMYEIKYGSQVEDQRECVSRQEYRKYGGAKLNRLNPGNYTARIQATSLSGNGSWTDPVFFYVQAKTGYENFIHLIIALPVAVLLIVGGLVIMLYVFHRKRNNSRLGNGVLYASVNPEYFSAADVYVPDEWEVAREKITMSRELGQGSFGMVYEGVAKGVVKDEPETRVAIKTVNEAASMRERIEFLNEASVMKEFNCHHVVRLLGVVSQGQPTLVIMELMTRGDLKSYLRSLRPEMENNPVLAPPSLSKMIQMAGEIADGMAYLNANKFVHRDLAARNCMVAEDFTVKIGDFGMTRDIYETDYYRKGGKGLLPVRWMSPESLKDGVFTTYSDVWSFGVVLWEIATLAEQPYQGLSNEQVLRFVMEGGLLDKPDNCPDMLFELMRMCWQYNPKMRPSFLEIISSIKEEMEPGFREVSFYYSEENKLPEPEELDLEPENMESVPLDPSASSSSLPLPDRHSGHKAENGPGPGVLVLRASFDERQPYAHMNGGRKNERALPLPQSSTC
Procedure: as §1, §2, §3

T1 sequence (P12931 whole entry): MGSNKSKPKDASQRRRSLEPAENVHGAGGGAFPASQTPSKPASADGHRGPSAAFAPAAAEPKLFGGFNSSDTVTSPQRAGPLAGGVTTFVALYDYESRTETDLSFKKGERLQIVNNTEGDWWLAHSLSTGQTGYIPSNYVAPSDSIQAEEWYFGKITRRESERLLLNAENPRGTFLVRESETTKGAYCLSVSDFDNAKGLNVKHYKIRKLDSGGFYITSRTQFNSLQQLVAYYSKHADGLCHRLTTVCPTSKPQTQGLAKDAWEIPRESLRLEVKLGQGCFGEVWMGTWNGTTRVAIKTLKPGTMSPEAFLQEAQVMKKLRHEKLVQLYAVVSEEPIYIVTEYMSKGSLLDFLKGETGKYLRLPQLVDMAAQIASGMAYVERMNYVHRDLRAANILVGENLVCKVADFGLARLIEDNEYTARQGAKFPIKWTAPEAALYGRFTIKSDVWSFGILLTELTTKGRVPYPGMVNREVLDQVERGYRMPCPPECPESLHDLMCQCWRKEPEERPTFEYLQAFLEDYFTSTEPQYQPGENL

Structure (SMILES) | IC50 (SRC kinase) [nM] | IC50 (Aurora B kinase) [nM] | IC50 (VEGF-R2) [nM] | IC50 (IGF-1 R) [nM]
COc1cc(C=NNc2nc3nonc3nc2Nc2ccccc2F)cc([N+](=O)[O-])c1O [Example 7] | < 1000 | < 10000 | < 2000 | –
O=C(O)c1cc(-c2ccc(C=NNc3nc4nonc4nc3Nc3ccccc3F)o2)ccc1O [Example 23] | < 1000 | < 10000 | < 2000 | < 1000
COc1ccccc1Nc1nc2nonc2nc1NN=Cc1cc(I)cc(I)c1O [Example 47] | – | < 10000 | – | –
O=C(O)c1cc(-c2ccc(C=NNc3nc4nonc4nc3Nc3ccc(Br)cc3)o2)ccc1Cl [Example 52] | < 1000 | < 10000 | < 2000 | < 1000
Oc1ccc(C=NNc2nc3nonc3nc2Nc2ccccc2)c(O)c1 [Example 81] | – | < 10000 | – | –
O=C(O)c1cccc(-c2ccc(C=NNc3nc4nonc4nc3Nc3ccccc3)o2)c1 [Example 89] | – | < 10000 | – | –
O=C1Nc2ccccc2C1=NNc1nc2nonc2nc1Nc1ccccc1 [Example 95, 3-[(6-Phenylamino-[1,2,5]oxadiazolo [3,4-b]pyrazin-5-yl)-hydrazono]-1,3-dihydro-indol-2-one] | – | < 10000 | – | < 1000
O=C(O)c1cccc(-c2ccc(C=NNc3nc4nonc4nc3NCc3ccccc3)o2)c1 [Example 111] | – | < 10000 | – | –
O=C(O)c1ccc(-c2ccc(C=NNc3nc4nonc4nc3NCc3ccccc3)o2)cc1 [Example 117] | – | < 10000 | – | –
Oc1ccc(C=NNc2nc3nonc3nc2Nc2ccc(F)cc2)c(O)c1 [Example 126] | – | < 10000 | – | –
Oc1ccc(C=NNc2nc3nonc3nc2Nc2cccc(Cl)c2)c(O)c1 [Example 147] | – | < 10000 | – | –
O=C(O)c1cccc(-c2ccc(C=NNc3nc4nonc4nc3Nc3cccc(Cl)c3)o2)c1 [Example 154] | < 1000 | < 10000 | < 2000 | < 1000
Oc1ccc(C=NNc2nc3nonc3nc2Nc2ccc(F)c(Cl)c2)c(O)c1 [Example 165] | – | < 10000 | < 2000 | –
O=C(O)c1cccc(-c2ccc(C=NNc3nc4nonc4nc3Nc3ccc(F)c(Cl)c3)o2)c1 [Example 173] | < 1000 | < 10000 | – | < 1000
O=C(O)c1cc(-c2ccc(C=NNc3nc4nonc4nc3Nc3ccc(F)c(Cl)c3)o2)ccc1Cl [Example 176] | < 1000 | < 10000 | < 2000 | < 1000
Fc1ccc(Nc2nc3nonc3nc2NN=Cc2ccc(-c3ccc(Cl)cc3)o2)cc1Cl [Example 180, (3-Chloro-4-fluoro-phenyl)-(6-{N′-[5-(4-chloro-phenyl)-furan-2-yl-methylene]-hydrazino}-[1,2,5]oxadiazolo [3,4-b]pyrazin-5-yl)-amine] | < 1000 | – | < 2000 | < 1000
O=S(=O)(O)c1ccc(C=NNc2nc3nonc3nc2Nc2ccc(F)c(Cl)c2)o1 [Example 181] | – | < 10000 | – | –
O=C1Nc2ccccc2C1=NNc1nc2nonc2nc1Nc1ccc(F)c(Cl)c1 [Example 182, 3-{1[6-(3-Chloro-4-fluoro-phenylamino)-[1,2,5]oxadiazolo[3,4-b]pyrazin-5-yl]-hydrazono}-1,3-dihydro-indol-2-one] | < 1000 | – | < 2000 | < 1000
O=C(O)c1cccc(C=NNc2nc3nonc3nc2Nc2ccc(Cl)c(Cl)c2)c1 [Example 186] | < 1000 | – | < 2000 | < 1000
Oc1ccc(C=NNc2nc3nonc3nc2Nc2ccc(Cl)c(Cl)c2)c(O)c1 [Example 189] | – | < 10000 | – | –
COc1ccc(O)c(C=NNc2nc3nonc3nc2Nc2ccc(Cl)c(Cl)c2)c1 [Example 191] | < 1000 | – | < 2000 | < 1000
Clc1ccc(Nc2nc3nonc3nc2NN=Cc2cc3ccccc3o2)cc1Cl [Example 193, [6-(N′-Benzofuran-2-ylmethylene-hydrazino)-[1,2,5]oxadiazolo[3,4-b]pyrazin-5-yl]-(3,4-dichloro-phenyl)-amine] | < 1000 | – | < 2000 | < 1000
O=C(O)c1cccc(-c2ccc(C=NNc3nc4nonc4nc3Nc3ccc(Cl)c(Cl)c3)o2)c1 [Example 194] | < 1000 | < 10000 | < 2000 | < 1000
O=C(O)c1cc(-c2ccc(C=NNc3nc4nonc4nc3Nc3ccc(Cl)c(Cl)c3)o2)ccc1Cl [Example 196] | < 1000 | < 10000 | < 2000 | < 1000
NC(=O)c1cccc(-c2ccc(C=NNc3nc4nonc4nc3Nc3ccc(Cl)c(Cl)c3)o2)c1 [Example 198] | < 1000 | – | < 2000 | < 1000
O=C(O)c1ccc(-c2ccc(C=NNc3nc4nonc4nc3Nc3ccc(Cl)c(Cl)c3)o2)cc1 [Example 199] | < 1000 | < 10000 | < 2000 | < 1000
Clc1ccc(-c2ccc(C=NNc3nc4nonc4nc3Nc3ccc(Cl)c(Cl)c3)o2)cc1 [Example 200, (6-{N-[5-(4-Chloro-phenyl)-furan-2-ylmethylene]-hydrazino}-[1,2,5]-oxadiazolo[3,4-b]pyrazin-5-yl)-(3,4-dichloro-phenyl)-amine] | < 1000 | – | < 2000 | < 1000
O=C1Nc2ccccc2C1=NNc1nc2nonc2nc1Nc1ccc(Cl)c(Cl)c1 [Example 201, 3-{[6-(3,4-Dichloro-phenylamino)-[1,2,5]oxadiazolo [3,4-b]pyrazin-5-yl]-hydrazono}-1,3-dihydro-indol-2-one] | < 1000 | – | < 2000 | < 1000
